Test results as given in patent US10660333B2, “Substituted 2-heterocyclylimidazolylcarboxamides as pesticides” (BAYER CROPSCIENCE AKTIENGESELLSCHAFT, priority 2016, dated 2020).
Like-named read-outs stand apart in the source and are kept apart here.

Columns and labels:
Myzus persicae [1] = assay: Myzus persicae - spray test; assay type: in vivo; details: for pest or weed control at 500 g/ha: Myzus persicae, foliar, 120 h, read-out: efficacy (aphids killed)
Experimental: Myzus persicae—Spray Test
(§1) To produce a suitable active ingredient formulation, 1 part by weight of active ingredient is dissolved with the specified parts by weight of solvent and made up to the desired concentration with water containing an emulsifier concentration of 1000 ppm. To produce further test concentrations, the formulation is diluted with emulsifier-containing water.
(§2) Discs of Chinese cabbage leaves (Brassica pekinensis) infested by all stages of the green peach aphid (Myzus persicae) are sprayed with an active ingredient formulation of the desired concentration.
(§3) After 5 days, the efficacy in % is determined. 100% means that all the aphids have been killed; 0% means that no aphids have been killed.

Myzus persicae [2] = assay: Myzus persicae - oral test; assay type: in vivo; details: for pest or weed control at 4 ppm: Myzus persicae, 120 h, read-out: efficacy (aphids killed)
Experimental: (§4) To produce a suitable active ingredient formulation, 1 part by weight of active ingredient is dissolved with the specified parts by weight of solvent and made up to the desired concentration with water.
(§5) 50 μl of the active ingredient formulation are transferred into microtitre plates and made up to a final volume of 200 μl with 150 μl of IPL41 insect medium (33%+15% sugar). Subsequently, the plates are sealed with parafilm, which a mixed population of green peach aphids (Myzus persicae) within a second microtitre plate is able to puncture and imbibe the solution.
as §3

Tetranychus urticae = Tetranychus urticae - spray test, OP-resistant; assay type: in vivo; details: 500 g/ha, bean leaf discs, after 6 days
Experimental: Tetranychus urticae—Spray Test, OP-Resistant
as §1
Discs of bean leaves (Phaseolus vulgaris) infested with all stages of the greenhouse red spider mite (Tetranychus urticae) are sprayed with an active ingredient formulation of the desired concentration.
After 6 days, the efficacy in % is determined. 100% means that all the spider mites have been killed; 0% means that no spider mites have been killed.

[3] = log P by HPLC on reversed-phase (C18) columns, OECD Guideline 117; assay type: physicochemical; details: for chromatographic logP: reversed-phase (C18) HPLC column
Boophilus microplus = Boophilus microplus - injection test; assay type: in vivo; details: 20 μg/animal, injection into engorged adult female cattle ticks, after 7 days
Experimental: Boophilus microplus—Injection Test
Solvent: Dimethyl Sulphoxide
To produce a suitable active ingredient formulation, 10 mg of active ingredient are mixed with 0.5 ml of solvent and the concentrate is diluted to the desired concentration with solvent.
1 μl of the active ingredient solution is injected into the abdomen of 5 engorged adult female cattle ticks (Boophilus microplus). The animals are transferred into dishes and kept in a climate-controlled room.
Efficacy is assessed after 7 days by laying of fertile eggs. Eggs which are not visibly fertile are stored in a climate-controlled cabinet until the larvae hatch after about 42 days. An efficacy of 100% means that none of the ticks has laid any fertile eggs; 0% means that all the eggs are fertile.

Meloidogyne incognita = Meloidogyne incognita - test; assay type: in vivo; details: 20 ppm, lettuce, after 14 days
Experimental: Meloidogyne incognita—Test
To produce a suitable active ingredient formulation, 1 part by weight of active ingredient is mixed with the stated amount of solvent and the concentrate is diluted to the desired concentration with water.
Vessels are filled with sand, active ingredient solution, an egg/larvae suspension of the southern root-knot nematode (Meloidogyne incognita) and lettuce seeds. The lettuce seeds germinate and the plants develop. The galls develop on the roots.
After 14 days, the nematicidal efficacy in % is determined by the formation of galls. 100% means that no galls were found; 0% means that the number of galls on the treated plants corresponds to the untreated control.

Myzus persicae [4] = assay: Myzus persicae - drench test (MYZUPE D), savoy cabbage; assay type: in vivo; details: Myzus persicae, soil, 240 h, 10 dat, read-out: % efficacy
Experimental: Myzus persicae—Drench Test (MYZUPE D)
To produce a suitable active ingredient formulation, 1 part by weight of active ingredient is mixed with the specified amounts of solvent and emulsifier, and the concentrate is diluted with water to the desired concentration, it being necessary to include the volume of soil which is drenched in the calculation. It should be ensured that a concentration of 40 ppm of emulsifier in the soil is not exceeded. To produce further test concentrations, water is used for dilution.
Savoy cabbage (Brassica oleracea) in pots with soil and infested by all stages of the green peach aphid (Myzus persicae) is watered with an active ingredient formulation of the desired concentration.
(§6) After the desired period of time, the efficacy in % is determined. 100% means that all the aphids have been killed; 0% means that no aphids have been killed.

Myzus persicae [5] = assay: Myzus persicae - oral test (MYZUPE O), comparison with prior art; assay type: in vivo; details: Myzus persicae, po, 120 h, 5 dat, read-out: % efficacy
Experimental: Myzus persicae—Oral Test (MYZUPE O)
as §4, §5, §6

Myzus persicae [6] = assay: Myzus persicae - spray test (MYZUPE), comparison with prior art; assay type: in vivo; details: Myzus persicae, 120 h, 5 dat, read-out: % efficacy; for Emax at 100 g/ha: 100 g/ha (g of ai/ha); for Emax at 20 g/ha: 20 g/ha (g of ai/ha)
Experimental: Myzus persicae—Spray Test (MYZUPE)
as §1, §2, §6

Myzus persicae [7] = assay: Myzus persicae - spray test (MYZUPE S), bell pepper plants; assay type: in vivo; details: Myzus persicae, 144 h, 6 dat, read-out: % efficacy
Experimental: Myzus persicae—Spray Test (MYZUPE S)
as §1, with “water. If the addition of ammonium salts or/and penetrants is required, these are each added in a concentration of 1000 ppm to the formulation solution.” for “water.”
Bell pepper plants (Capsicum annuum) severely infested with the green peach aphid (Myzus persicae) are treated by spraying with the active ingredient formulation in the desired concentration.
After the desired time, the kill in % is determined. 100% means that all the animals have been killed; 0% means that no animals have been killed.

Aphis gossypii = Aphis gossypii - spray test (APHIGO S), cotton plants; assay type: in vivo; details: 144 h, 6 dat, read-out: % efficacy
Experimental: Aphis gossypii—Spray Test (APHIGO S)
as §1, with “water. If the addition of ammonium salts or/and penetrants is required, these are each added in a concentration of 1000 ppm to the formulation solution.” for “water.”
Cotton plants (Gossypium hirsutum) heavily infested by the cotton aphid (Aphis gossypii) are sprayed with an active ingredient formulation of the desired concentration.
After the desired time, the kill in % is determined. 100% means that all the aphids have been killed; 0% means that no aphids have been killed.

[8] = 500 g/ha, Chinese cabbage leaf discs, after 5 days
[9] = HPLC RP C18, acidic range pH 2.7, 0.1% formic acid/acetonitrile
[10] = HPLC RP C18, neutral range pH 7.8, ammonium hydrogencarbonate/acetonitrile
[11] = HPLC RP C18, acidic range pH 2.7, 0.1% formic acid/acetonitrile, read-out: logP[a]
[12] = HPLC RP C18, neutral range pH 7.8, ammonium hydrogencarbonate/acetonitrile, read-out: logP[n]

Row | Compound | logP[a] [3, 9] | logP[n] [3, 10] | chromatographic logP [3, 11] | chromatographic logP [3, 12] | efficacy (aphids killed) (Myzus persicae [1]; [8]) | efficacy (aphids killed) (Myzus persicae [2]; 4 ppm, oral, after 5 days) | efficacy (spider mites killed) (Tetranychus urticae) | pest or weed control at 500 g/ha (Myzus persicae [1]; [8]) | pest or weed control at 4 ppm (Myzus persicae [2]; 4 ppm, oral, after 5 days) | efficacy (laying of fertile eggs) (Boophilus microplus) | Emax at 0.16 ppm (Myzus persicae [4]) | Emax at 0.8 ppm (Myzus persicae [4]) | Emax at 0.8 ppm (Myzus persicae [5]) | Emax at 4 ppm (Myzus persicae [5]) | Emax at 100 g/ha (Myzus persicae [6]) | Emax at 500 g/ha (Myzus persicae [6]) | Emax at 0.16 ppm (Myzus persicae [7]) | Emax at 0.8 ppm (Myzus persicae [7]) | Emax at 0.16 ppm (Aphis gossypii) | Emax at 0.8 ppm (Aphis gossypii) | further results
1 | CN(C(=O)c1cnc(C2CC(c3ccc([N+](=O)[O-])cc3)=NO2)n1C)c1cccnc1 (centres unmarked) [Example I-1-24] | – | – | – | – | 90% | 100% | 100% | – | – | – | – | – | – | – | – | – | – | – | – | – | logP[a] ([3]; pH 2.7): 1.64; logP[n] ([3]; pH 7.8): 1.84
2 | CN(C(=O)c1cnc(C2=NOCCO2)n1C)c1cccnc1 [Example I-1-29, 2-(5,6-Dihydro-1,4,2-dioxazin-3-yl)-N,1-dimethyl-N-(pyridin-3-yl)-1H-imidazole-5-carboxamide] | – | – | 0.45 | 0.76 | – | – | – | – | – | – | – | – | – | – | – | – | – | – | – | – | pest or weed control at 500 g/ha (Myzus persicae [1]; in Brassica rapa): 100%; pest or weed control at 4 ppm (Myzus persicae [2]; po): 100%; nematicidal efficacy (formation of galls) (Meloidogyne incognita): 100%
3 | CN(C(=O)c1cnc(C2CC(C3CC3)=NO2)n1C)c1cccnc1 (centres unmarked) [Example I-1-4] | – | – | 0.85 | 1.15 | – | – | – | 90% | 100% | – | 95% | 100% | 100% | 100% | 90% | 90% | 98% | 100% | 90% | 100% | Emax at 4 g/ha (Myzus persicae [6]; 4 g/ha (g of ai/ha)): 70%; Emax at 20 g/ha (Myzus persicae [6]): 100%
4 | CN(C(=O)c1cnc(C2CC(C(F)(F)F)=NO2)n1C)c1cccnc1 (centres unmarked) [Example I-1-32] | – | – | 1.45 | 1.59 | – | – | – | 90% | 100% | – | 90% | 99% | 100% | 100% | – | 90% | 20% | 96% | 90% | 97% | –
5 | CCC1=NOC(c2ncc(C(=O)N(C)c3cccnc3)n2C)C1 (centres unmarked) [Example I-1-2] | – | – | 0.71 | 1.09 | – | – | – | 90% | 100% | – | 98% | 100% | 100% | 100% | 70% | 90% | 100% | 100% | 98% | 98% | Emax at 20 g/ha (Myzus persicae [6]): 90%

Second part, led by results:

Row | logP[a] [3, 9] | logP[n] [3, 10] | chromatographic logP [3, 11] | chromatographic logP [3, 12] | Compound | efficacy (aphids killed) (Myzus persicae [1]; [8]) | efficacy (aphids killed) (Myzus persicae [2]; 4 ppm, oral, after 5 days) | efficacy (spider mites killed) (Tetranychus urticae) | pest or weed control at 500 g/ha (Myzus persicae [1]; [8]) | pest or weed control at 4 ppm (Myzus persicae [2]; 4 ppm, oral, after 5 days) | efficacy (laying of fertile eggs) (Boophilus microplus) | Emax at 0.16 ppm (Myzus persicae [4]) | Emax at 0.8 ppm (Myzus persicae [4]) | Emax at 0.8 ppm (Myzus persicae [5]) | Emax at 4 ppm (Myzus persicae [5]) | Emax at 100 g/ha (Myzus persicae [6]) | Emax at 500 g/ha (Myzus persicae [6]) | Emax at 0.16 ppm (Myzus persicae [7]) | Emax at 0.8 ppm (Myzus persicae [7]) | Emax at 0.16 ppm (Aphis gossypii) | Emax at 0.8 ppm (Aphis gossypii) | further results
6 | 2.18 | 2.37 | – | – | CN(C(=O)c1cnc(C2CC(c3ccc(C(F)(F)F)cc3)=NO2)n1C)c1cccnc1 (centres unmarked) [Example I-1-23] | 90% | 100% | 100% | – | – | – | – | – | – | – | – | – | – | – | – | – | –
7 | – | – | 1.39 | 1.63 | CN(C(=O)c1cnc(C2CC(c3cccc(C#N)c3)=NO2)n1C)c1cccnc1 (centres unmarked) [Example I-1-19, 2-[3-(3-Cyanophenyl)-4,5-dihydro-1,2-oxazol-5-yl]-N,1-dimethyl-N-(pyridin-3-yl)-1H-imidazole-5-carboxamide] | – | – | – | 100% | 100% | 95% | – | – | – | – | – | – | – | – | – | – | –
8 | 0.54 | 1.11 | – | – | CN(C(=O)c1cnc(C2CC(c3ccncc3)=NO2)n1C)c1cccnc1 (centres unmarked) [Example I-1-28] | 90% | 100% | – | – | – | 80% | – | – | – | – | – | – | – | – | – | – | –
9 | – | – | 1.45 | 1.72 | CN(C(=O)c1cnc(C2CC(c3ccccc3)=NO2)n1C)c1cccnc1 (centres unmarked) [Example I-1-7] | – | – | – | 90% | 100% | 80% | 80% | 90% | 100% | 100% | 90% | 90% | 95% | 100% | 50% | 100% | –
10 | 1.74 | 1.92 | – | – | CCN(C(=O)c1cnc(C2CC(c3ccccc3)=NO2)n1C)c1cccnc1 (centres unmarked) [Example I-1-8] | 100% | 100% | 90% | – | – | – | – | – | – | – | – | – | – | – | – | – | –
